In PMC9186362, “Design and biological evaluation of substituted 5,7-dihydro-6H-indolo[2,3-c]quinolin-6-one as novel selective Haspin inhibitors” (Journal of Enzyme Inhibition and Medicinal Chemistry, 2022):

Columns and labels:
[1] = tested on: U-2 OS, HCT116, MDA-MB231, SH-SY5Y and RPE-1 cell lines; test: Cell viability primary screen at 25 μM; format: cell-based, human; settings: 48 h; for Effect on cell viability, primary screen: all tested cell lines
Method: (§1) HCT116 cells were cultured in McCoy’s medium. SH-SY5Y, MDA-MB231 and U-2 OS cells were cultured in Dulbecco's modified Eagle's medium (DMEM) and hTERT RPE-1 cells in DMEM:F12 medium. All media were supplemented with 10% foetal calf serum and cells were cultured at 37 °C in a 5% CO2 humidified atmosphere.
(§2) Cell viability was then assessed using the CellTiter96 AQueous cell proliferation assay from Promega according to the manufacturer’s instructions. Each experiment was done in triplicate and EC50 were determined from the dose-response curves according to the signal given by the control (0.1% DMSO) set at 100% viability using Prism GraphPad software.

RnDYRK1A = RnDYRK1A (Rattus norvegicus, UniProt Q63470); test: ADP-Glo kinase assay; format: biochemical, Rattus norvegicus (Rn); settings: for Selectivity index DYRK/Haspin: IC50 DYRK1A/IC50 Haspin; for IC50: dose-response curve, each point in duplicate, read-out: Kinase inhibition (IC50) DYRK1A; for remaining activity: mean n = 2, % of maximum activity of DMSO control, read-out: % Residual activity at 1 μM DYRK1A
Method: (§3) Kinase activities were determined using the ADP-Glo methodology (ADP-Glo Kinase Assay; Promega) according to the assay described by Nguyen et al.[32] except for MmCLK1. The later was assayed in the following buffer: 10 mM MgCl2, 1 mM EGTA, 1 mM DTT, 25 mM Tris-HCl pH 7.5, 50 µg/ml heparin, 0.15 mg/ml BSA, with 0.027 µg/µl of the following peptide: GRSRSRSRSRSR as substrate.

MmCLK1 = MmCLK1 (Mus musculus, UniProt P22518); test: ADP-Glo kinase assay; format: biochemical, Mus musculus (Mm); settings: for remaining activity at 1 µM: mean n = 2, % of maximum activity of DMSO control, read-out: % Residual activity at 1 μM CLK1; for Selectivity index CLK1/Haspin: IC50 CLK1/IC50 Haspin; for IC50: dose-response curve, each point in duplicate, read-out: Kinase inhibition (IC50) CLK1
Method: as §3

HsHaspin = target: T1, HsHaspin (Homo sapiens, UniProt Q8TF76); test: ADP-Glo kinase assay; format: biochemical, Homo sapiens (Hs); settings: for remaining activity at 1 µM: mean n = 2, % of maximum activity of DMSO control, read-out: % Residual activity at 1 μM Haspin; for IC50: dose-response curve, each point in duplicate, read-out: Kinase inhibition (IC50) Haspin
T1 sequence (Q8TF76 1-798): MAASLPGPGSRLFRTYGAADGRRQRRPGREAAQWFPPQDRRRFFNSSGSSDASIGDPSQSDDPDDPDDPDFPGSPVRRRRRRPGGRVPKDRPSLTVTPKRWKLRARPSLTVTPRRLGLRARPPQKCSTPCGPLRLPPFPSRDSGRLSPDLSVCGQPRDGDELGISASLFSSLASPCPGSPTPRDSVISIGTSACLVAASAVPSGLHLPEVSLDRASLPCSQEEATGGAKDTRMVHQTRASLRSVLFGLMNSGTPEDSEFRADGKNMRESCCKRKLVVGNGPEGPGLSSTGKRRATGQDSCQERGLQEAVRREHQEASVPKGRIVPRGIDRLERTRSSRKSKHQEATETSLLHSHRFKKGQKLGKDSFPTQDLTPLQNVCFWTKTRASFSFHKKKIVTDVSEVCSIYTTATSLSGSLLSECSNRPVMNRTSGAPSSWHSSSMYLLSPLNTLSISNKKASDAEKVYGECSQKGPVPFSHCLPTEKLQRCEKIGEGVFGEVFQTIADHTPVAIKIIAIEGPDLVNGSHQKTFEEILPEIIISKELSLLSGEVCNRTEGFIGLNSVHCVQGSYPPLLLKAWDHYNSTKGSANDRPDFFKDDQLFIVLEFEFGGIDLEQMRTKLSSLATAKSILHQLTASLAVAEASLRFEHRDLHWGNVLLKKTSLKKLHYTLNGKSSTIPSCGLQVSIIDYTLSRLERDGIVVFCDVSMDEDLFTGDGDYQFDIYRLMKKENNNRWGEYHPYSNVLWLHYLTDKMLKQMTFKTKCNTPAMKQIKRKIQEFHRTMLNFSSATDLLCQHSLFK
Method: as §3

HsCdk5/p25 = HsCdk5/p25 (Homo sapiens, UniProt Q00535); test: ADP-Glo kinase assay; format: biochemical, Homo sapiens (Hs); settings: mean n = 2, % of maximum activity of DMSO control, read-out: % Residual activity at 1 μM CDK5
Method: as §3

HsCdk9/Cyc E = HsCdk9/Cyc E (Homo sapiens, UniProt P50750); test: ADP-Glo kinase assay; format: biochemical, Homo sapiens (Hs); settings: mean n = 2, % of maximum activity of DMSO control, read-out: % Residual activity at 1 μM CDK9
Method: as §3

HsGSK3β = HsGSK3β (Homo sapiens, UniProt P49841); test: ADP-Glo kinase assay; format: biochemical, Homo sapiens (Hs); settings: mean n = 2, % of maximum activity of DMSO control, read-out: % Residual activity at 1 μM GSK3β
Method: as §3

HsCdk2/Cyc A = HsCdk2/Cyc A (Homo sapiens, UniProt P24941); test: ADP-Glo kinase assay; format: biochemical, Homo sapiens (Hs); settings: mean n = 2, % of maximum activity of DMSO control, read-out: % Residual activity at 1 μM CDK2
Method: as §3

HsPIM1 = HsPIM1 (Homo sapiens, UniProt P11309); test: ADP-Glo kinase assay; format: biochemical, Homo sapiens (Hs); settings: mean n = 2, % of maximum activity of DMSO control, read-out: % Residual activity at 1 μM PIM1
Method: as §3

U-2 OS cell line = test: Cell viability MTS assay, dose-response; format: cell-based; settings: Homo sapiens, U2OS; 48 h, MTS assay in triplicate, doses up to 50 µM
Method: as §1, §2

RPE1 cell line = test: Cell viability MTS assay, dose-response; format: cell-based; settings: Homo sapiens, RPE-1; 48 h, MTS assay in triplicate, doses up to 50 µM
Method: as §1, §2

Chain of HsPIM1 (P11309 whole entry): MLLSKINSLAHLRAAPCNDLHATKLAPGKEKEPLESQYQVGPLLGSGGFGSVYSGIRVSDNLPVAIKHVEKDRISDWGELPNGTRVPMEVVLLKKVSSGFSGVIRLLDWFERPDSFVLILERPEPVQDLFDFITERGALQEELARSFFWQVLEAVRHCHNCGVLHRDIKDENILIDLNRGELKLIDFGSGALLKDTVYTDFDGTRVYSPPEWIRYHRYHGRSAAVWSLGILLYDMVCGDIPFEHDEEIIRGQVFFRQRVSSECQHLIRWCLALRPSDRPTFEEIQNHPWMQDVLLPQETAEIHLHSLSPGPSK
Chain of HsCdk9/Cyc E (P50750 whole entry): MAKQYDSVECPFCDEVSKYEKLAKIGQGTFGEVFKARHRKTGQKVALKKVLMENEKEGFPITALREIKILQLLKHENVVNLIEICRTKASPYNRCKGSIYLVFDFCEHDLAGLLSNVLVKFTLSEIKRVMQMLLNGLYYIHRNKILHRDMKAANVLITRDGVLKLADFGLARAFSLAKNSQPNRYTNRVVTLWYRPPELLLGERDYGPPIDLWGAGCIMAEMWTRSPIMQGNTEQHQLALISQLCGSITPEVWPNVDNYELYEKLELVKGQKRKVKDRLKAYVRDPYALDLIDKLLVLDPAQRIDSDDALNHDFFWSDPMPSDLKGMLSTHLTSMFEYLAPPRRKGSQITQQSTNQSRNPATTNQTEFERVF
Chain of HsCdk9/Cyc E (O60563 whole entry partner): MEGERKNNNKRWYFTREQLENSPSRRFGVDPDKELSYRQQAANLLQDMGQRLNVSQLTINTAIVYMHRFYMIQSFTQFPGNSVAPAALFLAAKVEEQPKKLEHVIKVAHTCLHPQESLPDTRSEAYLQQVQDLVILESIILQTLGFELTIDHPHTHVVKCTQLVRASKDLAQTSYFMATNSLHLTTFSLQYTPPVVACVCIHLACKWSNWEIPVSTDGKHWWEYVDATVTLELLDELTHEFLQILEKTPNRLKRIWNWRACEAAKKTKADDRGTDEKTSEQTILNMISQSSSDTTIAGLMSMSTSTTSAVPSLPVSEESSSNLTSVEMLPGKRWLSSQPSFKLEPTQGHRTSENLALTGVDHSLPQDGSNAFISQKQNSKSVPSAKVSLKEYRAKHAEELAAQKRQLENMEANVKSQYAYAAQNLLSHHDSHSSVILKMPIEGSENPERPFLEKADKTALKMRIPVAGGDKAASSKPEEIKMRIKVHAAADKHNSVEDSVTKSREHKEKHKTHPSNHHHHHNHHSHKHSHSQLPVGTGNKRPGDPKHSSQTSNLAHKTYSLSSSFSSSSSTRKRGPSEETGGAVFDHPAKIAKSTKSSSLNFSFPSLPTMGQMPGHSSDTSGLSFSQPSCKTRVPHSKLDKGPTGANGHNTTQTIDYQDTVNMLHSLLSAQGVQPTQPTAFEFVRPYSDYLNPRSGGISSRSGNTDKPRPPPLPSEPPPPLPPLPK
Chain of HsCdk5/p25 (Q00535 whole entry): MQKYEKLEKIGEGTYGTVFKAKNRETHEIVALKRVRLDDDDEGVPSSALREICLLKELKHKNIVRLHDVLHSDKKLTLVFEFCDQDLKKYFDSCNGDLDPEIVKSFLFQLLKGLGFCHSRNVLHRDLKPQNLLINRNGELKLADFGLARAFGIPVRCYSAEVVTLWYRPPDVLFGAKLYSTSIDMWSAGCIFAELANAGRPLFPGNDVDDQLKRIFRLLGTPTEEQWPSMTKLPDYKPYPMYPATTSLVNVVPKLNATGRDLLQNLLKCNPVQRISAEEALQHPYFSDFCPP
Chain of HsCdk5/p25 (Q15078 99-307 partner limits assumed): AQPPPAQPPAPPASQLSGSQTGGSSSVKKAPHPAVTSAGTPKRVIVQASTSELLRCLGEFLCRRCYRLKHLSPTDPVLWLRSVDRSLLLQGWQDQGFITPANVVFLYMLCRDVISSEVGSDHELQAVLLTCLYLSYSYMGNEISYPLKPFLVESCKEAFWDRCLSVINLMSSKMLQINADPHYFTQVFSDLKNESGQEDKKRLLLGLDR
Chain of MmCLK1 (P22518 whole entry): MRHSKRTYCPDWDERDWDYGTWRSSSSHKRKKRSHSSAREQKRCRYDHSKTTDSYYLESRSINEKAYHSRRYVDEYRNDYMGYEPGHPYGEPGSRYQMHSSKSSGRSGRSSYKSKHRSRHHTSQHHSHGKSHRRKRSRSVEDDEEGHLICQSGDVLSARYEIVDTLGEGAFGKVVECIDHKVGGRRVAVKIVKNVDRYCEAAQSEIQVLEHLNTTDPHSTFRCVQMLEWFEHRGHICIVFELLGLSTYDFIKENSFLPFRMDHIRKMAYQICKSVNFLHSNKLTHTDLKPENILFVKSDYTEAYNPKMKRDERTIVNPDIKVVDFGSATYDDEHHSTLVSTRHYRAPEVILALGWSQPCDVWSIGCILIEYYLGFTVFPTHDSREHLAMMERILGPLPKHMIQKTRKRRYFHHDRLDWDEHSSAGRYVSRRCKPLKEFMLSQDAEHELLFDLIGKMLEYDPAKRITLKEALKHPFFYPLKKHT
Chain of HsGSK3β (P49841 whole entry): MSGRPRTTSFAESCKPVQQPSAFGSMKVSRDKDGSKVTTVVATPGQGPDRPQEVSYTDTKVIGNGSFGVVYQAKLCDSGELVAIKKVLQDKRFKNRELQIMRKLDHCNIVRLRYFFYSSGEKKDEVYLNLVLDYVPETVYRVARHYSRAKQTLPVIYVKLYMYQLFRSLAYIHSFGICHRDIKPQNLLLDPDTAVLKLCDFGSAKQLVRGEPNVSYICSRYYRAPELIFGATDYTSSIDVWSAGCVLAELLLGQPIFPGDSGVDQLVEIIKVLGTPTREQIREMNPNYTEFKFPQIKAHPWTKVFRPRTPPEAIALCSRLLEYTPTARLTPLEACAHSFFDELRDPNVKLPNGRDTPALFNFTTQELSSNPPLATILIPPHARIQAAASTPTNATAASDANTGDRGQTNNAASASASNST

Structure (SMILES)	melting point	Reduction of cell viability compared to the DMSO control [1]	Selectivity index DYRK/Haspin (RnDYRK1A)	IC50 (RnDYRK1A)	remaining activity (RnDYRK1A)	remaining activity at 1 µM (MmCLK1)	Selectivity index CLK1/Haspin (MmCLK1)	IC50 (MmCLK1)	remaining activity at 1 µM (HsHaspin)	IC50 (HsHaspin)	remaining activity at 1 µM (HsCdk5/p25)	remaining activity at 1 µM (HsCdk9/Cyc E)	remaining activity at 1 µM (HsGSK3β)	remaining activity at 1 µM (HsCdk2/Cyc A)	remaining activity at 1 µM (HsPIM1)	EC50 (U-2 OS cell line)	EC50 (RPE1 cell line)	Effect on cell viability, primary screen [1]
O=c1[nH]c2ccc(O)cc2c2c1[nH]c1ccc(F)cc12 [Compound 61, 10-Fluoro-2-Hydroxy-5,7-dihydro-6H-indolo [2,3-c]quinolin-6-one]	240 to 243 °C	≥ 75%	21	104 nM	9%	2%	16	78 nM	0%	5 nM	91%	41%	71%	57%	38%	8700 nM	19100 nM	–
COc1ccc2[nH]c3c(=O)[nH]c4ccccc4c3c2c1 [Compound 49, 10-Methoxy-5,7-dihydro-6H-indolo[2,3-c]quinolin-6-one]	232 to 235 °C	–	–	15 nM	7%	5%	–	13 nM	2%	1 nM	77%	40%	39%	73%	41%	> 25000 nM	> 25000 nM	little to no effect
O=c1[nH]c2ccc(O)cc2c2c1[nH]c1ccccc12 [Compound 48, 2-Hydroxy-5,7-dihydro-6H-indolo[2,3-c]quinolin-6-one]	235 to 238 °C	≥ 75%	3	19 nM	12%	4%	3	17 nM	1%	6 nM	87%	49%	100%	84%	63%	7000 nM	7300 nM	–
COc1ccc2[nH]c(=O)c3[nH]c4ccccc4c3c2c1 [Compound 46, 2-Methoxy-5,7-dihydro-6H-indolo[2,3-c]quinolin-6-one]	> 250 °C	–	10	68 nM	18%	13%	7	51 nM	6%	7 nM	78%	62%	86%	80%	32%	> 25000 nM	> 25000 nM	little to no effect
COc1ccc2[nH]c3c(=O)[nH]c4ccc(N)cc4c3c2c1 [Compound 56, 2-Amino-10-methoxy-5,7-dihydro-6H-indolo[2,3-c]quinolin-6-one]	> 250 °C	–	16	226 nM	7%	3%	15	213 nM	2%	14 nM	79%	37%	39%	72%	65%	> 25000 nM	> 25000 nM	little to no effect
COc1ccc2c(c1)[nH]c(=O)c1[nH]c3ccc(OC)cc3c12 [Compound 50, 3,10-Dimethoxy-5,7-dihydro-6H-indolo[2,3-c]quinolin-6-one]	192 to 195 °C	≥ 75%	28	196 nM	5%	10%	13	88 nM	3%	7 nM	81%	51%	44%	77%	19%	4300 nM	20800 nM	–
COc1ccc2[nH]c3c(=O)[nH]c4cc(O)ccc4c3c2c1 [Compound 54, 3-Hydroxy-10-methoxy-5,7-dihydro-6H-indolo[2,3-c]quinolin-6-one]	227 to 230 °C	–	24	97 nM	2%	11%	21	82 nM	0%	4 nM	59%	18%	48%	35%	9%	> 25000 nM	> 25000 nM	little to no effect
COc1ccc2[nH]c(=O)c3[nH]c4ccc(OC)cc4c3c2c1 [Compound 51, 2,10-Dimethoxy-5,7-dihydro-6H-indolo[2,3-c]quinolin-6-one]	190 to 192 °C	–	10	41 nM	14%	5%	3	10 nM	1%	4 nM	70%	33%	29%	62%	36%	12600 nM	> 25000 nM	little to no effect
